Results published in patent US20260200937A1, “EXATECAN HYD[…] USE THEREOF” (HANGZHOU ADCORIS BIOPHARMA CO., LTD, priority 2023, published 2026).
Like-named read-outs stand apart in the source and are kept apart here.

Assays:
Format in all cases: cell-based
[1] = test system: NCI-H1975: human lung cancer cells; assay: Tumor cell growth inhibition (CCK-8, 72 h), NCI-H1975; details: 72 h incubation, read-out: IC50 for inhibiting the growth of tumor cells, NCI-H1975
Procedure: (§1) • OE33: human esophageal cancer cells; • SK-BR-3: human breast cancer cells; • NCI-N87: human gastric cancer cells; • NCI-H1975: human lung cancer cells; • MDA-MB-231: human breast cancer cells; • NCI-H226: human lung squamous cell carcinoma cells; • TE12: human esophageal cancer cells.
(§2) Tumor cells OE33, SK-BR-3, NCI-N87, NCI-H1975, MDA-MB-231, NCI-H226, and TE12 were cultured separately in RPMI1640 (Cellmax) supplemented with 10% fetal bovine serum (Cellmax). Tumor cells in the exponential growth phase were diluted to a concentration of 1×10^5 cells/mL with culture medium and added to 96-well cell culture plates at 100 μL per well, then returned and incubated overnight in a 37° C. incubator with 5% CO2. On the following day, the compounds were diluted to concentrations of 10000 nM, 2000 nM, 400 nM, 80 nM, 16 nM, 3.2 nM, 0.64 nM, and 0.13 nM with culture medium, and the diluted compounds were added to the 96-well cell culture plates at 2 μL per well, with three replicate wells for each concentration. Negative control and blank control groups without addition of compounds were added with 2 μL of the dilution liquid per well. After the addition of the compounds, the plates were returned to the 37° C. incubator with 5% CO2 to continue the incubation for 72 h. After the incubation, the cell culture plates were removed, and the culture medium in the plates was aspirated using a pipette. Then, 100 μL of culture medium containing 10% CCK-8 was added to each well, and the plates were incubated at 37° C. for 3 h. After the incubation, the plates were removed, kept in the dark, and placed in an […]. Absorbance was measured at 630 nm as the reference wavelength and 450 nm as the test wavelength. Based on the absorbance values, the IC50 values (Table 1) were calculated using the four-parameter logistic regression method in GraphPad.

[2] = test system: NCI-N87: human gastric cancer cells; assay: Tumor cell growth inhibition (CCK-8, 72 h), NCI-N87; details: 72 h incubation, read-out: IC50 for inhibiting the growth of tumor cells, NCI-N87
Procedure: as §1, §2

[3] = test system: NCI-H226: human lung squamous cell carcinoma cells; assay: Tumor cell growth inhibition (CCK-8, 72 h), NCI-H226; details: 72 h incubation, read-out: IC50 for inhibiting the growth of tumor cells, NCI-H226
Procedure: as §1, §2

[4] = test system: TE12: human esophageal cancer cells; assay: Tumor cell growth inhibition (CCK-8, 72 h), TE12; details: 72 h incubation, read-out: IC50 for inhibiting the growth of tumor cells, TE12
Procedure: as §1, §2

[5] = test system: OE33: human esophageal cancer cells; assay: Tumor cell growth inhibition (CCK-8, 72 h), OE33; details: 72 h incubation, read-out: IC50 for inhibiting the growth of tumor cells, OE33
Procedure: as §1, §2

[6] = test system: MDA-MB-231: human breast cancer cells; assay: Tumor cell growth inhibition (CCK-8, 72 h), MDA-MB-231; details: MDA-MB-231 cells, 72 h incubation, read-out: IC50 for inhibiting the growth of tumor cells, MDA-MB-231
Procedure: as §1, §2

[7] = test system: SK-BR-3: human breast cancer cells; assay: Tumor cell growth inhibition (CCK-8, 72 h), SK-BR-3; details: SK-BR-3 cells, 72 h incubation, read-out: IC50 for inhibiting the growth of tumor cells, SK-BR-3
Procedure: as §1, §2

| Structure (SMILES) | IC50 ([1]; Homo sapiens) [nM] | IC50 ([2]; Homo sapiens) [nM] | IC50 ([3]; Homo sapiens) [nM] | IC50 ([4]; Homo sapiens) [nM] | IC50 ([5]; Homo sapiens) [nM] | IC50 ([6]; Homo sapiens) [nM] | IC50 ([7]; Homo sapiens) [nM] | IC50 [1] [nM] | IC50 [2] [nM] | IC50 [3] [nM] | IC50 [4] [nM] | IC50 [5] [nM] | IC50 [6] [nM] | IC50 [7] [nM] |
| --- | --- | --- | --- | --- | --- | --- | --- | --- | --- | --- | --- | --- | --- | --- |
| [2H]C([2H])([2H])NOCC(=O)N[C@H]1CCc2c(C)c(F)cc3nc4c(c1c23)Cn1c-4cc2c(c1=O)COC(=O)[C@]2(O)CC [Compound D1, N-(2′-O—(N-trideuteriomethylamino)oxyacetyl)exatecan] | 65 | 2.44 | 22.8 | 36.7 | 4.32 | 183 | 2.59 | – | – | – | – | – | – | – |
| [2H]C([2H])([2H])NOC([2H])([2H])C(=O)N[C@H]1CCc2c(C)c(F)cc3nc4c(c1c23)Cn1c-4cc2c(c1=O)COC(=O)[C@]2(O)CC [Compound D4, N-(2′,2′-dideuterio-2′-O—(N-trideuteriomethylamino)oxyacetyl)exatecan] | 64.4 | 3.68 | 20.8 | 33.1 | 5.56 | 425 | 4.48 | – | – | – | – | – | – | – |
| CC[C@@]1(O)C(=O)OCc2c1cc1n(c2=O)Cc2c-1nc1cc(F)c(C)c3c1c2[C@@H](NC(=O)CO)CC3 [Dxd, reference compound] | – | – | – | – | – | – | – | 25.7 | 2.48 | 75.1 | 21.5 | 7.01 | 320 | 9.69 |
| CC[C@@]1(O)C(=O)OCc2c1cc1n(c2=O)Cc2c-1nc1cc(F)c(C)c3c1c2[C@@H](NC(=O)C1(ONC)CCC1)CC3 [Compound D2, N-(1′-O—(N-methylamino)oxycyclobutane-1′-carbonyl)exatecan] | 26.7 | 1.11 | 6.35 | 13.6 | 1.95 | 236 | 2.62 | – | – | – | – | – | – | – |
| CC[C@@]1(O)C(=O)OCc2c1cc1n(c2=O)Cc2c-1nc1cc(F)c(C)c3c1c2[C@@H](NC(=O)C1CNOC1)CC3 (stereo partly drawn) [Compound D5, N-(isoxazolidine-4′-carbonyl)exatecan] | 97.4 | 6.84 | 49.7 | 94.9 | 22.5 | 351 | 15.4 | – | – | – | – | – | – | – |
| CC[C@@]1(O)C(=O)OCc2c1cc1n(c2=O)Cc2c-1nc1cc(F)c(C)c3c1c2[C@@H](NC(=O)[C@H](C)ONC)CC3 [Compound D3, N-(2′-methyl-2′-O—(N-methylamino)oxyacetyl)exatecan] | 36.9 | 1.69 | 7.65 | 18.5 | 3.8 | 237 | 4.84 | – | – | – | – | – | – | – |
